How the values were obtained:
[1] = molecular target: T1, human recombinant α4β4 nicotinic receptors (Homo sapiens, UniProt P30926+P43681); assay: [3H]epibatidine binding, SH-EP1 membranes
T1 construct: expressed in transfected cells; host or cells: SH-EP1

db/db mouse = assay: Murine model of type 2 diabetes mellitus (db/db); format: in vivo
Description: The db/db mouse, a well established model of type 2 diabetes mellitus, is a leptin-deficient mutant that expresses an obese phenotype and also commonly expresses metabolic symptoms including hyperglycemia, hyperlipidemia and hyperinsulinemia (Halaas et al., 1995 and Lee et al., 1996). This experimental animal model of diabetes was employed in a study designed to determine the effects of (2S,3R)—N-2-((3-pyridinyl)methyl)-1-azabicyclo[2.2.2]oct-3-yl)-3,5-difluorobenzamide on body mass and several additional metabolic parameters.
In this study, (2S,3R)—N-2-((3-pyridinyl)methyl)-1-azabicyclo[2.2.2]oct-3-yl)-3,5-difluorobenzamide was repeatedly administered orally (via gavage) at 1.0 mg/kg once daily starting from the age of approximately 3 weeks and continuing throughout the 7-week study. Nondiabetic heterozygote littermate mice (db/+; designated “Db”) were used as controls. Body weight and food intake were determined twice weekly. The α7 antagonist methyllycaconitine (MLA) was also given concurrently via gavage at 3 mg/kg daily to selected cohorts of db/db (designated “db”) or db/+mice. At the end of the 7-week dosing regimen, total growth rates (overall body weight gain) and average daily food intake were calculated. In addition, glucose levels were assessed in mice fasted overnight. Furthermore, blood sample analytes from mice fasted overnight were collected for measurements of tumor necrosis factor-a (TNF-α), triglycerides and glycosylated hemoglobin (HbA1c). All data are expressed as mean±SEM. For each parameter investigated, differences among all groups were compared by one-way ANOVA with post-hoc Neuman-Keuls multiple comparison test.

[2] = test system: STZ rat model of diabetic neuropathy; assay: Streptozotocin (STZ)-induced diabetic neuropathy, Von Frey allodynia; format: in vivo; details: for allodynia (Von Frey): 30 minutes after administration
Description: Peripheral neuropathy, a major complication of diabetes, often results in spontaneous pain or the perception of pain from contact with a normally non-noxious stimulus. Such neuropathic pain is experienced by 20-24% of diabetic patients, or approximately 30 million people worldwide (Schmader, 2002). The streptozotocin (STZ)-induced diabetes model in rats provides a means to evaluate the efficacy of test compounds that offer therapeutic potential for peripheral neuropathy and to understand their putative mechanism of action. In this model, a single injection of STZ, an antibiotic that mimics clinical diabetes by causing irreversible damage to the pancreatic β and α-cells leads to chronic hyperglycemia, nerve dysfunction and pain sensitivity. The current study utilizes the STZ rat model of diabetic neuropathy to investigate the effects of (2S,3R)—N-2-((3-pyridinyl)methyl)-1-azabicyclo[2.2.2]oct-3-yl)-3,5-difluorobenzamide on mechanical allodynia, an assessment of pain.
Diabetes was induced by a 0.5 ml injection of streptozotocin (60 mg/kg) dissolved in citrate buffer (pH) into the tail vein of each rat The development of diabetes was confirmed by measuring the blood glucose levels (BGL) of all animals on study day 3 (BGL>300 mg/dL). […] These animals were tested again for their BGL at study day 23.
(2S,3R)—N-2-((3-pyridinyl)methyl)-1-azabicyclo[2.2.2]oct-3-yl)-3,5-difluorobenzamide (0.1, 1 or 10 mg/kg p.o.) was administered as a solution of the hydrochloride salt in water once daily starting on study day 14 or study day 16 and continuing through study day 21 or 23, respectively. The control article gabapentin (in 0.9% saline, 150 mg/kg i.p.) was only administered on allodynia test days. Test item, vehicle or control article administration was based on evaluation of allodynia on study day 14. If allodynia was not present on study day 14, the animal was evaluated again at study day 16. Pain response was measured either on study days 14 and 21 or 16 and 23, 30 minutes after Test Item administration.
For the allodynia assessments, Von Frey filaments were used according to the methods of Chaplan and colleagues (1994). Briefly, the rats were placed in an enclosure and positioned on a metal mesh surface, but allowed to move freely. The rats' cabins were covered with red cellophane to diminish environmental distributions. The test began after cessation of exploratory behavior.
When the tip of a Von Frey fiber of given length and diameter was pressed against the skin at right angles, the force of application increases as long as the researcher continued to advance the probe until the fiber bent. After the fiber bent, the probe was advanced, causing the fiber to bend more, but without additional force being applied. The animal would indicate sensation by pulling back its paw. In the absence of a paw withdrawal response to the initially selected filament, a stronger stimulus was presented; in the event of paw withdrawal, the next weaker stimulus was chosen. In this fashion, the resulting pattern of positive and negative responses was used to determine the paw withdrawal threshold.
The set of Von Frey monofilaments provide an approximate logarithmic scale of actual force and a linear scale of perceived intensity. Below is a table showing the force (g) and its corresponding size of monofilaments.
All normally distributed data are presented as means±SEM, as well as the animals' individual values followed by a student T-test (Software: Microsoft® Excel). A p value <0.05 is considered to represent a significant difference. Due to the non-normal distribution of the allodynia data, descriptions of those data are provided as both mean (±SEM) and median values in order to represent their imprecise nature and skewed distribution.

[3] = molecular target: T2, human native muscle-type nicotinic receptors (likely α1β1γδ) (Homo sapiens, UniProt P02708+P07510+Q07001); assay: [3H]epibatidine binding, TE-671 membranes
T2 construct: human native muscle-type nicotinic receptors (likely α1β1γδ); endogenous in cells; host or cells: TE-671
T2 sequence (P07510 23-517): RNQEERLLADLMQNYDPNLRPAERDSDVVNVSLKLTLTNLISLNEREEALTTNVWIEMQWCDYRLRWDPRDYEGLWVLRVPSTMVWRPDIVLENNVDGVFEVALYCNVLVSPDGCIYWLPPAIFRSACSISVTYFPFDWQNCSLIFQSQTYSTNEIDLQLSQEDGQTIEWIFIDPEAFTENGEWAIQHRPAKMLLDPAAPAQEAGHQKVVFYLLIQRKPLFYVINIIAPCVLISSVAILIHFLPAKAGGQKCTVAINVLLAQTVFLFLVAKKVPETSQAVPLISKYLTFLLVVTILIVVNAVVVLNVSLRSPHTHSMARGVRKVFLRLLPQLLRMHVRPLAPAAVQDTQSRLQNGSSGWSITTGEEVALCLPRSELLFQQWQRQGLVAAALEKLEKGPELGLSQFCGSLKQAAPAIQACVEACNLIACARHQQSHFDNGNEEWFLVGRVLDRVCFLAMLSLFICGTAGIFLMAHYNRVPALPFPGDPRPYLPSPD
T2 sequence (P11230 24-501, further chain): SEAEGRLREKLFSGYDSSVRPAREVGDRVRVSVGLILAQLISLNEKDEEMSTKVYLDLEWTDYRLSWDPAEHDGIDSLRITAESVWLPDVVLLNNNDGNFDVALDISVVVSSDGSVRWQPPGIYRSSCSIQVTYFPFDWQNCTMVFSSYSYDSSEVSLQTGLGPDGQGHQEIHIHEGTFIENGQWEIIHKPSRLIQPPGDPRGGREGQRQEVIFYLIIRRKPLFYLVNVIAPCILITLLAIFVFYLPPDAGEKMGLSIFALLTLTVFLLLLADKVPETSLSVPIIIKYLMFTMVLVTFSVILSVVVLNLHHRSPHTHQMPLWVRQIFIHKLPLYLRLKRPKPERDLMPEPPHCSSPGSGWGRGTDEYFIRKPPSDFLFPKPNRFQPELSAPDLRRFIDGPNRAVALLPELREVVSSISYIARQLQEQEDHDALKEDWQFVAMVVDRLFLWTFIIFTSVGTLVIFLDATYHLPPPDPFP
T2 sequence (P02708 21-457): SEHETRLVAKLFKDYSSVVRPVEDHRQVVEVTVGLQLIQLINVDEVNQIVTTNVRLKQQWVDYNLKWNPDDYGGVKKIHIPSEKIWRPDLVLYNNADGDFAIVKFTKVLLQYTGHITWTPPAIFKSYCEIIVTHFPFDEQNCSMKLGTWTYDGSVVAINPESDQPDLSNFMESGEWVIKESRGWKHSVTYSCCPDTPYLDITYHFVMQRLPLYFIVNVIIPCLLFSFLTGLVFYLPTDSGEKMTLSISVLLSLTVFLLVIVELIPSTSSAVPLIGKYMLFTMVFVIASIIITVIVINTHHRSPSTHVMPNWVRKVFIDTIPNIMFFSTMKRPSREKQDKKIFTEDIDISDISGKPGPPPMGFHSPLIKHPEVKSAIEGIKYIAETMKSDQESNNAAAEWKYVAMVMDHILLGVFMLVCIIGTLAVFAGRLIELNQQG
T2 sequence (Q07001 22-517): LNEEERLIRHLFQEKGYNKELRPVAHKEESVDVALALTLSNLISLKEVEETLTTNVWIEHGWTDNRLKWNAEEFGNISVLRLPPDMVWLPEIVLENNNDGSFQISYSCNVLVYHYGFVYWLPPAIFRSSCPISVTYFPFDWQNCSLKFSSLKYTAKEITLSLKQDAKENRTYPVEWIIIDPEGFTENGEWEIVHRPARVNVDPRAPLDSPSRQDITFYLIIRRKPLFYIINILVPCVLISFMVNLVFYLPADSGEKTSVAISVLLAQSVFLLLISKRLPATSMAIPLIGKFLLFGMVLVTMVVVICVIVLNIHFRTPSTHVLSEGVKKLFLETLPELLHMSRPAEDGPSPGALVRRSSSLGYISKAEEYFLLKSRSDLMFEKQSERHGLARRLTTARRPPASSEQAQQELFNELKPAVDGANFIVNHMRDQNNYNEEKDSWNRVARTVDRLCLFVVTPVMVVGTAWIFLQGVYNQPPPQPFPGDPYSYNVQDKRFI

T1 sequence (P43681 29-627 limits assumed): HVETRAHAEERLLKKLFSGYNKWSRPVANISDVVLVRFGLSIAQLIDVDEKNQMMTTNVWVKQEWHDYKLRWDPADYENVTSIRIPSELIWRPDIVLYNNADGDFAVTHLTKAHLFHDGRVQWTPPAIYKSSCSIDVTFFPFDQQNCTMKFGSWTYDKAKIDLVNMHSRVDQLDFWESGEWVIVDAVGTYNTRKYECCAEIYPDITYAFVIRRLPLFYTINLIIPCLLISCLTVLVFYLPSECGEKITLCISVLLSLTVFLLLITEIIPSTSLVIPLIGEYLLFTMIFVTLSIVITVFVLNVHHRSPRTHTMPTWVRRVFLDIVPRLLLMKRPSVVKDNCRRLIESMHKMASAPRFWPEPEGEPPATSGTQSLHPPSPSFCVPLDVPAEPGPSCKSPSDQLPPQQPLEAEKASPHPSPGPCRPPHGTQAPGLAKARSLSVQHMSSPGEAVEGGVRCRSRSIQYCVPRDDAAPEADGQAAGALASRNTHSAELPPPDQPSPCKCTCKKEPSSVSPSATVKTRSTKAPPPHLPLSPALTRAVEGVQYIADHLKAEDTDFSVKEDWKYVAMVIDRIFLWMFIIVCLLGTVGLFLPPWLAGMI
T1 sequence (P30926 22-498): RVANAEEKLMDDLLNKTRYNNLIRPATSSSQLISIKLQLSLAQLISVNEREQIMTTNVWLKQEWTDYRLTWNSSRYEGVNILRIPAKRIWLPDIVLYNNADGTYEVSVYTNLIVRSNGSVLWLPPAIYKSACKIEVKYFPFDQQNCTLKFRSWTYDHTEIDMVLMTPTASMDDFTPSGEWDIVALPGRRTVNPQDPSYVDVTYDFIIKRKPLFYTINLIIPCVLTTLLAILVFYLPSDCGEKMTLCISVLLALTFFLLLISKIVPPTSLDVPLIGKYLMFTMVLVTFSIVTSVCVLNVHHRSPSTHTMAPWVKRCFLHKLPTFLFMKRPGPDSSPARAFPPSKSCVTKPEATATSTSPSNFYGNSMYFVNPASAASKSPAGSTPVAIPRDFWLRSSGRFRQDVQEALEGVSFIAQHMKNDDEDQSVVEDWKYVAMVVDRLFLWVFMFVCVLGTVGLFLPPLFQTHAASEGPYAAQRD

Compound: O=C(N[C@@H]1C2CCN(CC2)[C@H]1Cc1cccnc1)c1cc(F)cc(F)c1 [Compound A]
- Ki [1]: 19 µM
- food consumption (db/db mouse; lean (db/+) mice, 1.0 mg/kg oral daily, FIG. 16): unaffected
- total body weight gain (db/db mouse; obese db/db mice, 1.0 mg/kg oral daily, 7 weeks, FIG. 15): significantly lower
- average food consumption (db/db mouse; obese db/db mice, 1.0 mg/kg oral daily, 7 weeks, vs obese controls, FIG. 16): significantly lower
- all parameters measured (db/db mouse; obese db/db mice, 1.0 mg/kg oral once daily, 7 weeks, vs vehicle-treated obese db/db): significant decrease in all parameters measured
- fasting plasma glucose levels (db/db mouse; obese mice, 1.0 mg/kg oral daily, 7 weeks, FIG. 17): significantly inhibited
- glycosylated HbA1c levels (db/db mouse; obese mice, 1.0 mg/kg oral daily, 7 weeks, FIG. 18): significantly inhibited
- pro-inflammatory cytokine TNF alpha (db/db mouse; obese mice, 1.0 mg/kg oral daily, 7 weeks, FIG. 19): significantly reduced
- triglyceride levels (db/db mouse; obese mice, 1.0 mg/kg oral daily, 7 weeks, vs vehicle-treated controls, FIG. 20): significantly lower
- allodynia (Von Frey) ([2]; 1 mg/kg p.o., study days 14/16, p<0.01 vs pretreatment, p<0.05 vs Vehicle): inhibited allodynia
- allodynia (Von Frey) ([2]; 1 mg/kg p.o., study days 21/23, p=0.012 vs pretreatment): inhibited allodynia
- allodynia (Von Frey) ([2]; 10 mg/kg p.o., study days 14/16, p=0.012 vs pretreatment): inhibited allodynia
- allodynia (Von Frey) ([2]; 10 mg/kg p.o., study days 21/23, p<0.05 vs Vehicle): inhibited allodynia
- diabetic neuropathy pain, Von Frey assessment ([2]; doses of 1 mg/kg and 10 mg/kg compared to Vehicle, FIG. 14): effective in reducing diabetic neuropathy pain
- Ki [3]: 136 µM

— patent US20110312961A1, “2,5-Disubstituted Morpholine Orexin REceptor Antagonists” (priority 2008, published 2011)
